From US12325681B2, “Inhibitors of nitric oxide synthases (NOS), pharmaceutical products thereof, and methods thereof” (Gacter Inc., priority 2022, dated 2025)
Where two headings read alike, the source gives them in different places.

Legend:
iNOS [1] = target: T1, iNOS (Homo sapiens, UniProt P35228); assay: abcam NOS Inhibitor Screening Kit, IC50 (fluorescence); type: biochemical; set-up: IC50
Protocol: The IC50 of some compounds of the invention was determined using the abcam NOS Inhibitor Screening Kit. The procedure includes the following steps: (1) Dissolved a test compound to 10 mM in DMSO; (2) Diluted the test compound to 1 mM in NOS Assay Buffer; (3) Diluted 1 mM of the test compound stocks to 200 μM, 50 μM, 12.5 μM, 3.125 μM, 0.781 μM, and 0.195 μM in NOS Assay Buffer; (4) Diluted 1 mM DPI Control to 50.0 μM, 12.5 μM, 3.125 μM, 0.781 μM, 0.195 μM, and 0.0488 μM in NOS Assay Buffer; (5) Diluted NOS enzyme with 400 μL of NOS Assay Buffer; (6) Combined Diluted NOS Enzyme with 1.6 mL of NOS Assay buffer then transferred 20 μL of enzyme solution to all wells of 96-well Fluorescence plate except background wells. Added 20 μL of NOS Assay buffer to background wells. (7) Transferred 10 uL of each test compound dilution to the enzyme buffer mix according to the plate map (see addendum for plate map and raw data values). (8) Incubated 15 minutes at room temperature. (9) Added 11 μL of NOS reaction mix (according to manufacturer's protocol) to each well, mixed, and incubated at 37° C. for 1 hour. […] Measure Fluorescence at 360 nm excitation/450 nm emission.

iNOS [2] = target: T1, iNOS; assay: as above; type: biochemical; set-up: IC50; IC50; settings: abcam NOS Inhibitor Screening Kit
Protocol: (§1) The IC50 of some compounds of the invention was determined using the abcam NOS Inhibitor Screening Kit. The procedure includes the following steps: (1) Dissolved a test compound to 10 mM in DMSO; (2) Diluted the test compound to 1 mM in NOS Assay Buffer; (3) Diluted 1 mM of the test compound stocks to 200 μM, 50 μM, 12.5 μM, 3.125 μM, 0.781 μM, and 0.195 μM in NOS Assay Buffer; (4) Diluted 1 mM DPI Control to 50.0 μM, 12.5 μM, 3.125 μM, 0.781 μM, 0.195 μM, and 0.0488 μM in NOS Assay Buffer; (5) Diluted NOS enzyme with 400 μL of NOS Assay Buffer; (6) Combined Diluted NOS Enzyme with 1.6 mL of NOS Assay buffer then transferred 20 μL of enzyme solution to all wells of 96-well Fluorescence plate except background wells. Added 20 μL of NOS Assay buffer to background wells. (7) Transferred 10 uL of each test compound dilution to the enzyme buffer mix according to the plate map (see addendum for plate map and raw data values). (8) Incubated 15 minutes at room temperature. (9) Added 11 μL of NOS reaction mix (according to manufacturer's protocol) to each well, mixed, and incubated at 37° C. for 1 hour. (10) Added 110 μL of NOS Assay Buffer to each well followed by 5 μL of Enhancer to each well, mixed, and incubated 10 minutes at room temperature; (11) Added 10 μL of Probe to each well, mixed, and incubated 10 minutes at room temperature; and (12) Added 5 μL of NaOH to each well, mixed, and incubated 10 minutes at room temperature. Measure Fluorescence at 360 nm excitation/450 nm emission.

iNOS [3] = target: T1, iNOS; assay: as above; type: biochemical; set-up: Fold (GT-xxxx)/AZ 6b; settings: ratio of IC50 to AZ 6b IC50 (0.0488 μM)
Protocol: as §1

mice = settings: cited from earlier work
rats = settings: cited from earlier work
iNOS [4] = target: T1, iNOS; settings: in words; cited from earlier work

T1 sequence (P35228 whole entry): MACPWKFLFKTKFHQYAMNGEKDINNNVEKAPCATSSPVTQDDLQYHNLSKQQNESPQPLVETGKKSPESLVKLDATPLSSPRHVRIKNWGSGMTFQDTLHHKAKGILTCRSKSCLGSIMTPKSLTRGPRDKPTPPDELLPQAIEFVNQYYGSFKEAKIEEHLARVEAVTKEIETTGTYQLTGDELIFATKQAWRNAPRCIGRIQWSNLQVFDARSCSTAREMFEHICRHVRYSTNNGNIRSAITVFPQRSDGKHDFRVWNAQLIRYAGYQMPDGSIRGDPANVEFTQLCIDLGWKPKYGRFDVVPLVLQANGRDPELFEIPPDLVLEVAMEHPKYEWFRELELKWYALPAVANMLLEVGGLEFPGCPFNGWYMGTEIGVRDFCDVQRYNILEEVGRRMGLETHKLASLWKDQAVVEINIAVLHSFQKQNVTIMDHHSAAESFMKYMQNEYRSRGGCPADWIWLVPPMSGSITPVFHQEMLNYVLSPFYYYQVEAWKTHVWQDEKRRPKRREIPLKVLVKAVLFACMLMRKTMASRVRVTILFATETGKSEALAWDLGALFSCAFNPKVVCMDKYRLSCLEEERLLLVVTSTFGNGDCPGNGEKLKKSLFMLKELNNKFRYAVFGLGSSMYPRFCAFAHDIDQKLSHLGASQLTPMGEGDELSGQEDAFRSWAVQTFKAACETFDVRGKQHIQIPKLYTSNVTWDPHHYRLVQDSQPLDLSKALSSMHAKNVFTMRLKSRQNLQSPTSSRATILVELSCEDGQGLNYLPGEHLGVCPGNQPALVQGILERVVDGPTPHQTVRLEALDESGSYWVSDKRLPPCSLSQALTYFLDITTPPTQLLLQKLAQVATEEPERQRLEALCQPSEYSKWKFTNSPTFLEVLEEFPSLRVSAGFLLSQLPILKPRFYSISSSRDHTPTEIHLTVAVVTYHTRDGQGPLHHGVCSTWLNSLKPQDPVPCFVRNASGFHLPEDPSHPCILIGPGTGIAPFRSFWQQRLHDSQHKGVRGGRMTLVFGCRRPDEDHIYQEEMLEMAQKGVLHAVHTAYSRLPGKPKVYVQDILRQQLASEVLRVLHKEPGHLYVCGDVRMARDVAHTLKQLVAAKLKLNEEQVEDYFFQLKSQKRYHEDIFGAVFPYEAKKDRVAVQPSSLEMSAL

Structure (SMILES): N#Cc1ccc(Cl)cc1O[C@H](CCN)c1ccccc1 [AZ 6b, (R)-2-(3-amino-1-phenylpropoxy)-4-chlorobenzonitrile, reference compound]
- IC50 (iNOS [1]): 48.8 nM

Structure (SMILES): N#Cc1ccc(Cl)cc1C(=O)N(CCNCC1CC1)c1ccccc1 [GT-7019, 5-chloro-2-cyano-N-(2-((cyclopropylmethyl)amino)ethyl)-N-phenyl benzamide]
- IC50 (iNOS [2]; Table C-1): 438 nM
- IC50 (iNOS [2]; Table C-2): 438 nM
- Fold (GT-xxxx)/AZ 6b (iNOS [3]): 8.98

Structure (SMILES): N=C(N)SCCc1ccc(CCSC(=N)N)cc1 [PBIT, S,S′-1,4-phenylene-bis(1,2-ethanediyl)bis-isothiourea]
- acutely toxic at doses as low as (mice): 10 mg/kg
- acutely toxic at doses as low as (rats): 10 mg/kg
- selectivity of inhibition iNOS to eNOS (iNOS [4]): does not exhibit necessary selectivity
